Measurements published in patent US9133207B2, “Tetrandrine derivatives with substituted 5-carbon, preparation method and use thereof” (Hangzhou Bensheng Pharmaceutical Co., Ltd., priority 2011, dated 2015).
In brackets after ≈: the same amount, converted by molar mass.

Tests used:
A549 (human lung cancer) = test: Solid tumor cell growth inhibition, MTT, 72 h (Example 7); assay type: cell-based; settings: Homo sapiens; 72 h, MTT, A549
Description: (§1) Human solid tumor cell lines: Hep-2 (laryngeal carcinoma), A549 (human lung cancer), CaES-17 (esophageal cancer cell), PC-3 (prostate cancer), CNE (nasopharyngeal carcinoma cell) and SK-OV-3 (ovarian cancer cell), all of which are purchased from China Center For Type Culture Collection; RKO (human colon adenocarcinoma cell), MGC 803 (human gastric cancer cell), MG63 (osteosarcoma), and U87 MG (malignant glioma cell), all of which are purchased from Fuxiang Bio-tech Co. Ltd., Shanghai, China; PANC-1 (pancreatic cancer), Huh? (human liver cancer cell), Becap37 (human breast cancer cell), and Hela (human cervical cancer cell), all of which are donated by Cancer Research Institute of Zhejiang University, China.
(§2) Reagents: the same as in Example 5.
(§3) Obtaining 4000 well-growing human solid tumor cells and inoculating them into wells of a 96-well cell culture plate. The culture medium is DMEM High Glucose cell culture medium containing 10% fetal bovine serum. The plate is placed in a carbon dioxide cell incubator (5% CO2) at 37° C. and incubated for 24 hours. After been added with tetrandrine derivatives of different concentration and mixing uniformly, the plate is placed in a carbon dioxide cell incubator (5% CO2) at 37° C. and incubated for 72 hours. Then the viable cell concentration is determined by the MTT method and the cell viability (%) after drug treatment is calculated. In this experiment, the cell viability of control group (not treated with any compound) is set as 100%.

[1] = test system: Becap37 (human breast cancer cell); test: as above; assay type: cell-based; settings: Homo sapiens; 72 h, MTT, Becap-37
Description: as §1, §2, §3

[2] = test system: Huh7 (human liver cancer cell); test: as above; assay type: cell-based; settings: Homo sapiens; 72 h, MTT, Huh-7
Description: as §1, §2, §3

[3] = test system: MGC 803 (human gastric cancer cell); test: as above; assay type: cell-based; settings: Homo sapiens
Description: as §1, §2, §3

[4] = test system: RPMI8226 (multiple myeloma); test: Multiple myeloma cell growth inhibition, MTT, 72 h (Example 6); assay type: cell-based, human; settings: Homo sapiens, RPMI-8226; 72 h, MTT, RPMI8226
Description: Multiple myeloma and lymphoma cell lines: RPMI8226 (multiple myeloma), purchased from Fuxiang Bio-tech Co. Ltd., Shanghai, China.
as §2
(§4) Obtaining 6000 well-growing leukemia cells and inoculating them into wells of a 96-well cell culture plate. The culture medium is a 1640 cell culture medium containing 10% fetal bovine serum. After adding the tetrandrine derivatives of different concentrations and mixing uniformly, placing the plate in a carbon dioxide cell incubator (5% CO2) at 37° C. and incubated for 72 hours. Then the viable cell concentration is determined by the MTT method.

PC-3 (prostate cancer) = test: Solid tumor cell growth inhibition, MTT, 72 h (Example 7); assay type: cell-based, human; settings: Homo sapiens; 72 h, MTT, PC-3
Description: as §1, §2, §3

[5] = test system: PANC-1 (pancreatic cancer); test: as above; assay type: cell-based, human; settings: Homo sapiens; 72 h, MTT, PANC-1
Description: as §1, §2, §3

[6] = test system: CaES-17 (esophageal cancer cell); test: as above; assay type: cell-based, human; settings: Homo sapiens, CaEs17; 72 h, MTT, CAES-17
Description: as §1, §2, §3

MG63 (osteosarcoma) = test: as above; assay type: cell-based, human; settings: Homo sapiens; 72 h, MTT, MG-63
Description: as §1, §2, §3

[7] = test system: Jurkat (acute lymphoblastic leukemia, ALL); test: Leukemia cell growth inhibition, MTT, 72 h (Example 5); assay type: cell-based, human; settings: Homo sapiens, Jurkat; 72 h, MTT
From the text: (§5) Leukemia cell lines: leukemia cell lines: K562/adr (drug-resistant, chronic myeloid leukemia, CML), NB4 (acute promyelocytic leukemia, AML), Kasumi-1 (acute myeloid leukemia M2 type, AML-M2), Jurkat (acute lymphoblastic leukemia, ALL), all of which are donated by Cancer Research Institute of Zhejiang University, China; and H9 (acute lymphoblastic leukemia, ALL), which is purchased from China Center for Type Culture Collection.
(§6) Reagents: The standard sample of tetrandrine (TTD) is purchased from Ci Yuan Biotechnology Co., Ltd., Shaanxi, China; and the 5-substituted tetrandrine derivatives of the present invention.
as §4, with “incubating” for “incubated”

[8] = test system: Kasumi-1 (acute myeloid leukemia M2 type, AML-M2); test: as above; assay type: cell-based, human; settings: Homo sapiens, Kasumi 1
From the text: as §5, §6
as §4, with “incubating” for “incubated”

[9] = test system: H9 (acute lymphoblastic leukemia, ALL); test: as above; assay type: cell-based, human; settings: Homo sapiens; 72 h, MTT
From the text: as §5, §6
as §4, with “incubating” for “incubated”

[10] = test system: K562/adr (drug-resistant, chronic myeloid leukemia, CML); test: as above; assay type: cell-based, human; settings: Homo sapiens, K562/Adr; 72 h, MTT
From the text: as §5, §6
as §4, with “incubating” for “incubated”

[11] = test system: RKO (human colon adenocarcinoma cell); test: Solid tumor cell growth inhibition, MTT, 72 h (Example 7); assay type: cell-based; settings: Homo sapiens; 72 h, MTT, RKO
Description: as §1, §2, §3

Row | SMILES | IC50 (A549 (human lung cancer)) | IC90 (A549 (human lung cancer)) | IC50 [1] | IC90 [1] | IC50 [2] | IC90 [2] | IC50 [3] | IC90 [3] | IC50 [4] | IC90 [4] | IC50 (PC-3 (prostate cancer)) | IC90 (PC-3 (prostate cancer)) | IC50 [5] | IC90 [5] | IC50 [6] | IC90 [6] | IC50 (MG63 (osteosarcoma)) | IC90 (MG63 (osteosarcoma)) | IC50 [7] | IC90 [7] | further results
1 | COc1ccc2cc1Oc1ccc(cc1)C[C@H]1c3cc(c(OC)cc3CCN1C)Oc1c(OC)c(OC)c(COCc3ccsc3)c3c1[C@H](C2)N(C)CC3 [BS-TE-415] | 2.44 µg/mL (≈ 3.26 µM) | 5.61 µg/mL (≈ 7.49 µM) | 1.9 µg/mL (≈ 2.54 µM) | 3.31 µg/mL (≈ 4.42 µM) | 1.09 µg/mL (≈ 1.46 µM) | 1.91 µg/mL (≈ 2.55 µM) | 1.06 µg/mL (≈ 1.42 µM) | 1.9 µg/mL (≈ 2.54 µM) | 0.14 µg/mL (≈ 0.187 µM) | 0.89 µg/mL (≈ 1.19 µM) | 3.5 µg/mL (≈ 4.67 µM) | 5.76 µg/mL (≈ 7.69 µM) | 2.76 µg/mL (≈ 3.69 µM) | 4.9 µg/mL (≈ 6.54 µM) | 1.74 µg/mL (≈ 2.32 µM) | 5.98 µg/mL (≈ 7.98 µM) | 1.31 µg/mL (≈ 1.75 µM) | 4.75 µg/mL (≈ 6.34 µM) | 2.22 µg/mL (≈ 2.96 µM) | 5.71 µg/mL (≈ 7.62 µM) | IC50 [8]: 1.95 µg/mL (≈ 2.6 µM); IC90 [8]: 6.41 µg/mL (≈ 8.56 µM); IC50 [9]: 1.71 µg/mL (≈ 2.28 µM); IC90 [9]: 2.5 µg/mL (≈ 3.34 µM); IC50 [10]: 0.57 µg/mL (≈ 0.761 µM); IC90 [10]: 2.06 µg/mL (≈ 2.75 µM)
2 | COCc1c2c3c(c(OC)c1OC)Oc1cc4c(cc1OC)CCN(C)[C@H]4Cc1ccc(cc1)Oc1cc(ccc1OC)C[C@@H]3N(C)CC2 [BS-TE-420] | 4.41 µg/mL (≈ 6.61 µM) | 12.2 µg/mL (≈ 18.3 µM) | 5.6 µg/mL (≈ 8.4 µM) | 11.5 µg/mL (≈ 17.2 µM) | 4.22 µg/mL (≈ 6.33 µM) | 7.06 µg/mL (≈ 10.6 µM) | 5.01 µg/mL (≈ 7.51 µM) | 7.56 µg/mL (≈ 11.3 µM) | 0.29 µg/mL (≈ 0.435 µM) | 2.25 µg/mL (≈ 3.37 µM) | 5.68 µg/mL (≈ 8.52 µM) | 10.9 µg/mL (≈ 16.4 µM) | > 10 µg/mL | > 10 µg/mL | 4.72 µg/mL (≈ 7.08 µM) | 18.9 µg/mL (≈ 28.4 µM) | 2.72 µg/mL (≈ 4.08 µM) | 9.89 µg/mL (≈ 14.8 µM) | 5.21 µg/mL (≈ 7.81 µM) | 16 µg/mL (≈ 24 µM) | IC50 [8]: 2.16 µg/mL (≈ 3.24 µM); IC90 [8]: 9.83 µg/mL (≈ 14.7 µM); IC50 [9]: 4.4 µg/mL (≈ 6.6 µM); IC90 [9]: 7.68 µg/mL (≈ 11.5 µM); IC50 [10]: 0.82 µg/mL (≈ 1.23 µM); IC90 [10]: 3.85 µg/mL (≈ 5.77 µM)
3 | CCOCc1c2c3c(c(OC)c1OC)Oc1cc4c(cc1OC)CCN(C)[C@H]4Cc1ccc(cc1)Oc1cc(ccc1OC)C[C@@H]3N(C)CC2 [BS-TE-419] | 5.61 µg/mL (≈ 8.24 µM) | 9.75 µg/mL (≈ 14.3 µM) | 4.22 µg/mL (≈ 6.2 µM) | 6.88 µg/mL (≈ 10.1 µM) | 2.54 µg/mL (≈ 3.73 µM) | 6.16 µg/mL (≈ 9.05 µM) | 5.16 µg/mL (≈ 7.58 µM) | 7.5 µg/mL (≈ 11 µM) | 0.28 µg/mL (≈ 0.411 µM) | 2.09 µg/mL (≈ 3.07 µM) | 6.67 µg/mL (≈ 9.8 µM) | 10.5 µg/mL (≈ 15.4 µM) | 5.99 µg/mL (≈ 8.8 µM) | 9.31 µg/mL (≈ 13.7 µM) | 4.98 µg/mL (≈ 7.31 µM) | 18.4 µg/mL (≈ 27.1 µM) | 3.07 µg/mL (≈ 4.51 µM) | 9.69 µg/mL (≈ 14.2 µM) | 4.18 µg/mL (≈ 6.14 µM) | 10.3 µg/mL (≈ 15.2 µM) | IC50 [8]: 3.62 µg/mL (≈ 5.32 µM); IC90 [8]: 11.8 µg/mL (≈ 17.4 µM); IC50 [9]: 4.64 µg/mL (≈ 6.82 µM); IC90 [9]: 7.26 µg/mL (≈ 10.7 µM); IC50 [10]: 1.42 µg/mL (≈ 2.09 µM); IC90 [10]: 5.71 µg/mL (≈ 8.39 µM)
4 | COc1ccc2cc1Oc1ccc(cc1)C[C@H]1c3cc(c(OC)cc3CCN1C)Oc1c(OC)c(OC)c(COC(=O)c3ccc(N(C)C)cc3)c3c1[C@H](C2)N(C)CC3 [BS-TE-204] | 3.12 µg/mL (≈ 3.9 µM) | 14.2 µg/mL (≈ 17.7 µM) | 3.66 µg/mL (≈ 4.58 µM) | 6.19 µg/mL (≈ 7.74 µM) | 2.08 µg/mL (≈ 2.6 µM) | 3.88 µg/mL (≈ 4.85 µM) | 2.57 µg/mL (≈ 3.21 µM) | 9 µg/mL (≈ 11.3 µM) | 0.47 µg/mL (≈ 0.588 µM) | 1.92 µg/mL (≈ 2.4 µM) | 6.55 µg/mL (≈ 8.19 µM) | 9 µg/mL (≈ 11.3 µM) | 6.47 µg/mL (≈ 8.09 µM) | 11.1 µg/mL (≈ 13.9 µM) | 6.81 µg/mL (≈ 8.51 µM) | 16.6 µg/mL (≈ 20.8 µM) | 1.72 µg/mL (≈ 2.15 µM) | 4.69 µg/mL (≈ 5.86 µM) | 2.66 µg/mL (≈ 3.33 µM) | 9.06 µg/mL (≈ 11.3 µM) | IC50 [11]: 3.12 µg/mL (≈ 3.9 µM); IC90 [11]: 4.7 µg/mL (≈ 5.88 µM); IC50 [8]: 2.32 µg/mL (≈ 2.9 µM); IC90 [8]: 7.5 µg/mL (≈ 9.38 µM); IC50 [9]: 2.88 µg/mL (≈ 3.6 µM); IC90 [9]: 5.84 µg/mL (≈ 7.3 µM); IC50 [10]: 1.47 µg/mL (≈ 1.84 µM); IC90 [10]: 14.5 µg/mL (≈ 18.1 µM)
